According to ChEMBL document CHEMBL4602617, “Discovery and optimization of heteroaryl piperazines as potent and selective PI3Kδ inhibitors” (Bioorg Med Chem Lett, 2020):

Assays:
[1] = target: Serine/threonine-protein kinase MRCK beta (Homo sapiens, UniProt Q9Y5S2); assay: Inhibition of recombinant human His-tagged MRCKB catalytic domain expressed in baculovirus expression system using serine/threonine-13 peptide as substrate incubated for 60 mins in presence of ATP by Z'-LYTE assay
[2] = target: RAC-gamma serine/threonine-protein kinase (Homo sapiens, UniProt Q9Y243); assay: Inhibition of recombinant full length human His-tagged AKT3 expressed in baculovirus expression system using Ser/Thr-06 peptide as substrate incubated for 60 mins in presence of ATP by Z'-LYTE assay
Sequence of RAC-gamma serine/threonine-protein kinase (Q9Y243 whole entry, the tested form may be a part): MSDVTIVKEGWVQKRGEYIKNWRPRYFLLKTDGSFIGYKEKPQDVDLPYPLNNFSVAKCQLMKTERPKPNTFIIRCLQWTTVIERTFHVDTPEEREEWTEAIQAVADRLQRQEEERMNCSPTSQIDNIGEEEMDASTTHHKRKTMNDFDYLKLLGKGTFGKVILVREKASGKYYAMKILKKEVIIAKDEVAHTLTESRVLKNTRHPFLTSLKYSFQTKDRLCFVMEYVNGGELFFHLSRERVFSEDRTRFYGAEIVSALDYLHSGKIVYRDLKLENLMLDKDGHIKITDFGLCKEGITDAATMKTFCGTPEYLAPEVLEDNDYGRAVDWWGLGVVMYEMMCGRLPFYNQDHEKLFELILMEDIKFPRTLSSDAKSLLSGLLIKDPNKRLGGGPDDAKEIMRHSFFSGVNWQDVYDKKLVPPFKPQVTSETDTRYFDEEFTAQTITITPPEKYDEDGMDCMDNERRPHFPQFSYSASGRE

[3] = target: Vascular endothelial growth factor receptor 2 (Homo sapiens, UniProt P35968); assay: Inhibition of recombinant human His-tagged KDR (789 to 1356 residues) expressed in baculovirus expression system using Tyr1 as substrate incubated for 1 hr in presence of ATP by Z'-LYTE assay
Sequence of Vascular endothelial growth factor receptor 2 (P35968 whole entry, the tested form may be a part): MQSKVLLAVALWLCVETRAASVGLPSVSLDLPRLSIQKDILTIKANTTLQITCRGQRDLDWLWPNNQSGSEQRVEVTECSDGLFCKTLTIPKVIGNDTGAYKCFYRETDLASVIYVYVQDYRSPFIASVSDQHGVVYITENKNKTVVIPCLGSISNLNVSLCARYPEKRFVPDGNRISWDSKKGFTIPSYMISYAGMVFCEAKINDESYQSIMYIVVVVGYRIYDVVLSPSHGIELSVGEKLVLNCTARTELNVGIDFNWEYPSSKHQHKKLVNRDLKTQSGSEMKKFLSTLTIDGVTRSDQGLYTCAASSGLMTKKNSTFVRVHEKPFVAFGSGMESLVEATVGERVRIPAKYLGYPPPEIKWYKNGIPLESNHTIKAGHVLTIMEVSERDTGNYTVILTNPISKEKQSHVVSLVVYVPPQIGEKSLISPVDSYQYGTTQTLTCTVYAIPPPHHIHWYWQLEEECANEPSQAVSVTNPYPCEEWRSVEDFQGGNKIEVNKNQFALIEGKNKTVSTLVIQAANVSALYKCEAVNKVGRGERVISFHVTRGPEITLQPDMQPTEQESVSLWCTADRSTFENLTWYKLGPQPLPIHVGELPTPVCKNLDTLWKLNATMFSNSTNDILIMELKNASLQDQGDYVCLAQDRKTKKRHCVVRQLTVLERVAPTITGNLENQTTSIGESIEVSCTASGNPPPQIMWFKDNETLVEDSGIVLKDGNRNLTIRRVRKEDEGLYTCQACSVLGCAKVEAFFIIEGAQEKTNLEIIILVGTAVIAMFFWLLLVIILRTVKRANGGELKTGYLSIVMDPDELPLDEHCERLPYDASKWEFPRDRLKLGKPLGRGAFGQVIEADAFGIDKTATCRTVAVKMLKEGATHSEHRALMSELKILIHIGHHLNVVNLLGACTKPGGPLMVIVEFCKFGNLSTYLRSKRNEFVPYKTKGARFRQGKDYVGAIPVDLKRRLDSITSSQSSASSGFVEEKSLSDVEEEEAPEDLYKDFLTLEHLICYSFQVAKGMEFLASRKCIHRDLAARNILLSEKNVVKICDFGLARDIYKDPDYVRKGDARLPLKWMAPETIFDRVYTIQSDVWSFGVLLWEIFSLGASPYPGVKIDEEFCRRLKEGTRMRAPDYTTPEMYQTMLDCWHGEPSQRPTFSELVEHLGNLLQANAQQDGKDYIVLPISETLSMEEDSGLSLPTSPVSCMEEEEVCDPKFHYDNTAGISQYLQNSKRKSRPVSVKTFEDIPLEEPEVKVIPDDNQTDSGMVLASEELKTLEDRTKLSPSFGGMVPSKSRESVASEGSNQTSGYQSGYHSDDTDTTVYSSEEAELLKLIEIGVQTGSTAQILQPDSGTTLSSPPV

[4] = target: Ephrin type-A receptor 1 (Homo sapiens, UniProt P21709); assay: Inhibition of recombinant human GST-tagged EPHA1 cytoplasmic domain (568 to 976 residues) expressed in baculovirus expression system using Tyr 02 as substrate after 1 hr in presence of ATP by Z'LYTE assay
[5] = target: Sodium-dependent dopamine transporter (Homo sapiens) (UniProt Q01959); assay: Displacement of [125I]RTI-55 from full length recombinant human dopamine transporter expressed in CHO-S cells at 10 uM after 3 hrs by radiometric scintillation analysis relative to control; assay type: cell-based
[6] = target: Retinoic acid receptor RXR-alpha (Homo sapiens) (UniProt P19793); assay: Displacement of [3H]-9-cis-Retinoic acid from human recombinant RXRalpha receptor LBD domain expressed in Escherichia coli at 10 uM measured after 16 hrs by radiometric scintillation analysis relative to control
[7] = target: Platelet-activating factor receptor (Homo sapiens) (UniProt P25105); assay: Inhibition of human PAF at 10 uM relative to control
Sequence of Platelet-activating factor receptor (Homo sapiens) (P25105 whole entry): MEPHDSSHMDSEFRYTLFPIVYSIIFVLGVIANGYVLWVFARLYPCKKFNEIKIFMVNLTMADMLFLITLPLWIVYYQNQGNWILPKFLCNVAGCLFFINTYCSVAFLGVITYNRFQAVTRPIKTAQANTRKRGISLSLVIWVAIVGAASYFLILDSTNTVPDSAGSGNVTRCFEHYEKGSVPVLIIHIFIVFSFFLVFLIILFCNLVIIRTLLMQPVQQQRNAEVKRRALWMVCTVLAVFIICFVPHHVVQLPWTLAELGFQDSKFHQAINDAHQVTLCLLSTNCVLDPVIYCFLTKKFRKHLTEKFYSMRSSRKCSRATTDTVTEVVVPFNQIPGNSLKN

[8] = target: Glycine receptor (Rattus norvegicus) (UniProt P22771+P24524+P07727+P20781); assay: Displacement of [3H]strychnine from glycine ion channel in Wistar rat spinal cord membranes at 10 uM incubated for 10 mins by radiometric scintillation analysis relative to control; assay type: cell membranes; conditions: Membrane
Sequence of Glycine receptor (Rattus norvegicus) (P07727 whole entry, looked up): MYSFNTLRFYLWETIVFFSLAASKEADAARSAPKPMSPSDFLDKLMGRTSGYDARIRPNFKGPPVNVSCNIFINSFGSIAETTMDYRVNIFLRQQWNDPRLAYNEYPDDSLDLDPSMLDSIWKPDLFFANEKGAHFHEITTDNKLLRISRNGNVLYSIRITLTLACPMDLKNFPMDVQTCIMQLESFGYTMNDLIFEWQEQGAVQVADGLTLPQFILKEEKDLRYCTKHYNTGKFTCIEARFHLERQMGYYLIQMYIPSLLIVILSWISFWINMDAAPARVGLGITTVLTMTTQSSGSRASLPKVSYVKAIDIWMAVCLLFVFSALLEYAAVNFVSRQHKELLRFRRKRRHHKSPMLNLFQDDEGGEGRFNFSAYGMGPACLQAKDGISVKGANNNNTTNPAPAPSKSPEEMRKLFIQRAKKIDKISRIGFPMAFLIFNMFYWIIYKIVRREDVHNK
Sequence of Glycine receptor (Rattus norvegicus) (P20781 whole entry, looked up): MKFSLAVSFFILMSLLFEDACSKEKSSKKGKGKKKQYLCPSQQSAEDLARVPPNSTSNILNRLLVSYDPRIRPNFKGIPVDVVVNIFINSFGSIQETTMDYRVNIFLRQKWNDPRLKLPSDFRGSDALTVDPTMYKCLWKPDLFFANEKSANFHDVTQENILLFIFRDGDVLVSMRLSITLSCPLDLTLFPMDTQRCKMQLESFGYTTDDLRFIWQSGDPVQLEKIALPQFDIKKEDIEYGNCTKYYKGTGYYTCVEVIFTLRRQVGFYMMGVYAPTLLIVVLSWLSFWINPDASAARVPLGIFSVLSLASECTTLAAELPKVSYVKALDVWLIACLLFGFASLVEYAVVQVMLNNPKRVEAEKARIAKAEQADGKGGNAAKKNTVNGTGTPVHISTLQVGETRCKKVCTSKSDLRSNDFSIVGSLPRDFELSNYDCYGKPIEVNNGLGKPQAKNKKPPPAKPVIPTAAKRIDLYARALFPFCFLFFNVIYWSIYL
Sequence of Glycine receptor (Rattus norvegicus) (P22771 whole entry, looked up): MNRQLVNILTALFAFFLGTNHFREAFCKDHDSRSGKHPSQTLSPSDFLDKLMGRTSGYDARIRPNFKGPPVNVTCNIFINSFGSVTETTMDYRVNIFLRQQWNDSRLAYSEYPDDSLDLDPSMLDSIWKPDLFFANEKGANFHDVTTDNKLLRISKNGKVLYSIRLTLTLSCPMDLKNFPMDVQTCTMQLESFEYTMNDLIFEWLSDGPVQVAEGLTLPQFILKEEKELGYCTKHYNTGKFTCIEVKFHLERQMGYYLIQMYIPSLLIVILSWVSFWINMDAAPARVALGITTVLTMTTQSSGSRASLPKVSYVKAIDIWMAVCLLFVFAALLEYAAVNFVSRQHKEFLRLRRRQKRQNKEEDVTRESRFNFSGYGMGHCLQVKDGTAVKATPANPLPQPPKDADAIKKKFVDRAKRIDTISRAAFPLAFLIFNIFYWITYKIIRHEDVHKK
Sequence of Glycine receptor (Rattus norvegicus) (P24524 whole entry, looked up): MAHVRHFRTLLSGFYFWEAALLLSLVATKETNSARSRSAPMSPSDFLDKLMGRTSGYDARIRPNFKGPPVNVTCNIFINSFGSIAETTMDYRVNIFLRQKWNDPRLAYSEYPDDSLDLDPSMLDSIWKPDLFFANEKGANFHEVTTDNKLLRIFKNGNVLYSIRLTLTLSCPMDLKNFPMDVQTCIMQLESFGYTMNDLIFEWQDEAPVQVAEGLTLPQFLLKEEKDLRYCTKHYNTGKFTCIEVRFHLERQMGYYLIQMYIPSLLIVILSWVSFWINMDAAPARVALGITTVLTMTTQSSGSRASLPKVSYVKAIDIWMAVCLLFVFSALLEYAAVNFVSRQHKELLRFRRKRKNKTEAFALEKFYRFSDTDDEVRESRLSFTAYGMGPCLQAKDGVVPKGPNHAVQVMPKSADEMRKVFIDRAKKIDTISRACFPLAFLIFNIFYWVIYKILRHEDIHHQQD

[9] = target: Androgen receptor (Homo sapiens) (UniProt P10275); assay: Displacement of [3H]methyltrienolone from human LNCAP cells derived androgen receptor at 10 uM measured after 20 hrs by scintillation counting method relative to control; assay type: cell-based
[10] = target: Beta-3 adrenergic receptor (Homo sapiens) (UniProt P13945); assay: Displacement of [125I]cyanopindolol from full-length recombinant human beta3 adrenergic receptor expressed in HEK293 cell membranes at 10 uM measured after 90 mins by scintillation counting method relative to control
Sequence of Beta-3 adrenergic receptor (Homo sapiens) (P13945 whole entry, looked up, the tested form may be a part): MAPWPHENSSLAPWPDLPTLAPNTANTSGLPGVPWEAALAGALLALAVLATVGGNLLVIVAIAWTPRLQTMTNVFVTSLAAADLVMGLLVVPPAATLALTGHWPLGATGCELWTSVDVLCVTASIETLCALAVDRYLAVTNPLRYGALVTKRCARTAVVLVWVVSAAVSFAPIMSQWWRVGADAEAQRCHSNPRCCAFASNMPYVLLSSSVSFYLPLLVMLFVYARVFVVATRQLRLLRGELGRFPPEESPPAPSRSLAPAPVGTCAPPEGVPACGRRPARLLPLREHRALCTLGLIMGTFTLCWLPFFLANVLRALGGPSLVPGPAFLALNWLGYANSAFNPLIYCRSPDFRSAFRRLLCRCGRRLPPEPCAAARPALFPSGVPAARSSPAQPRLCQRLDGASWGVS

[11] = target: Epidermal growth factor receptor (Homo sapiens, UniProt P00533); assay: Inhibition of human EGFR (668 to 1210 residues) expressed in insect cells at 10 uM using Poly(Glu:Tyr) as substrate after 30 mins by radiometric scintillation analysis relative to control
[12] = target: Serine/threonine-protein kinase Chk2 (Homo sapiens, UniProt O96017); assay: Inhibition of recombinant human full-length His-tagged CHEK2 expressed in baculovirus expression system using FRET-labeled Ser/Thr 07 peptide as substrate measured after 1 hr in presence of ATP by Z'-lyte assay
Sequence of Serine/threonine-protein kinase Chk2 (O96017 whole entry): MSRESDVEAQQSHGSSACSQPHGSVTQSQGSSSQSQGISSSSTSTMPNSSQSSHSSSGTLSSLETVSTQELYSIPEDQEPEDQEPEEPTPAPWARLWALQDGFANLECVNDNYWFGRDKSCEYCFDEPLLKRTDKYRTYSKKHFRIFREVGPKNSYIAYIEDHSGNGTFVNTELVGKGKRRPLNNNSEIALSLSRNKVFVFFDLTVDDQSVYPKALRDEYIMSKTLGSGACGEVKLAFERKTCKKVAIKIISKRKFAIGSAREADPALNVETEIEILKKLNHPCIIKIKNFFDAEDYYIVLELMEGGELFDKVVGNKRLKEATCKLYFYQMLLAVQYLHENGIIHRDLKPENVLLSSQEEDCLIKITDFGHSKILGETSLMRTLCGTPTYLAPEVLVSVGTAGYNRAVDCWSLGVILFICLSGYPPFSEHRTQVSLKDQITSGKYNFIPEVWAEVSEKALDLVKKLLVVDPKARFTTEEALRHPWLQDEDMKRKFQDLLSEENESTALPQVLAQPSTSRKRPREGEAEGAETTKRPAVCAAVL

[13] = target: Dual specificity tyrosine-phosphorylation-regulated kinase 1B (Homo sapiens, UniProt Q9Y463); assay: Inhibition of recombinant full length human GST-tagged DYRK1B expressed in baculovirus expression system using serine/threonine-18 peptide as substrate incubated for 60 mins in presence of ATP by Z'-LYTE assay
[14] = target: G protein-coupled receptor kinase 6 (Homo sapiens, UniProt P43250); assay: Inhibition of recombinant full length human GST-tagged GRK6 expressed in baculovirus expression system using serine/threonine-16 peptide as substrate incubated for 60 mins in presence of ATP by Z'-LYTE assay
[15] = target: Homeodomain-interacting protein kinase 2 (Homo sapiens, UniProt Q9H2X6); assay: Inhibition of recombinant human GST-tagged HIPK2 expressed in baculovirus expression system using serine/threonine-9 peptide as substrate incubated for 60 mins in presence of ATP by Z'-LYTE assay
[16] = target: Dual specificity mitogen-activated protein kinase kinase 6 (Homo sapiens, UniProt P52564); assay: Inhibition of recombinant full length human His-tagged MAP2K6 expressed in baculovirus expression system using serine/threonine-3 peptide as substrate incubated for 60 mins in presence of ATP by Z'-LYTE assay
[17] = target: Mitogen-activated protein kinase 3 (Homo sapiens, UniProt P27361); assay: Inhibition of recombinant full length human GST-tagged ERK1 expressed in Escherichia coli using fluorophore-labeled serine/threonine-3 peptide as substrate incubated for 60 mins in presence of ATP by Z'-LYTE assay
[18] = target: Mitogen-activated protein kinase 9 (Homo sapiens, UniProt P45984); assay: Inhibition of recombinant full length human His-tagged JNK2 expressed in baculovirus expression system using serine/threonine-4 peptide as substrate incubated for 60 mins in presence of ATP by Z'-LYTE assay
[19] = target: MAP kinase-activated protein kinase 5 (Homo sapiens, UniProt Q8IW41); assay: Inhibition of recombinant full length human His-tagged PRAK expressed in baculovirus expression system using serine/threonine-4 peptide as substrate incubated for 60 mins in presence of ATP by Z'-LYTE assay
[20] = target: Serine/threonine-protein kinase PLK2 (Homo sapiens, UniProt Q9NYY3); assay: Inhibition of recombinant full length human GST-tagged PLK2 expressed in baculovirus expression system using serine/threonine-16 peptide as substrate incubated for 60 mins in presence of ATP by Z'-LYTE assay
[21] = target: Ribosomal protein S6 kinase alpha-2 (Homo sapiens, UniProt Q15349); assay: Inhibition of recombinant full length human GST-tagged RPS6KA2 expressed in insect expression system using Ser/Thr 06 peptide as substrate incubated for 60 mins in presence of ATP by Z'-LYTE assay
[22] = target: Ribosomal protein S6 kinase alpha-6 (Homo sapiens, UniProt Q9UK32); assay: Inhibition of recombinant full length human N-terminal GST-tagged RPS6KA6 expressed in baculovirus expression system using ser/Thr20 peptide as substrate incubated for 60 mins in presence of ATP by Z'-LYTE assay
[23] = target: Serine/threonine-protein kinase Sgk3 (Homo sapiens, UniProt Q96BR1); assay: Inhibition of recombinant human GST-tagged SGK3 catalytic domain (87 to 496 residues) expressed in baculovirus expression system using serine/threonine-6 peptide as substrate incubated for 60 mins in presence of ATP by Z'-LYTE assay
[24] = target: Sphingosine kinase 2 (Homo sapiens, UniProt Q9NRA0); assay: Inhibition of recombinant full length GST-tagged human SPHK2 expressed in baculovirus expression system using Sphingosine lipid as substrate in presence of ATP after 1 hr by Adapta assay
[25] = target: Tyrosine-protein kinase SYK (Homo sapiens, UniProt P43405); assay: Inhibition of recombinant full length human GST-tagged SYK expressed in baculovirus expression system using tyrosine-2 peptide as substrate incubated for 60 mins in presence of ATP by Z'-LYTE assay

Compound: C[C@@H]1C[C@H]1C(=O)N1CCN(c2cnc(C#N)c(-c3cnn(C)c3)n2)C[C@H]1C
- IC50 [1]: > 100 µM
- IC50 [2]: > 100 µM
- IC50 [3]: 37.6 µM
- IC50 [4]: 34 µM
- inhibition [5]: 1%
- inhibition [6]: 8%
- inhibition [7]: -5%
- inhibition [8]: 3%
- inhibition [9]: 17%
- inhibition [10]: -1%
- inhibition [11]: -9%
- IC50 [12]: > 100 µM
- IC50 [13]: > 100 µM
- IC50 [14]: > 100 µM
- IC50 [15]: > 100 µM
- IC50 [16]: > 100 µM
- IC50 [17]: > 100 µM
- IC50 [18]: > 100 µM
- IC50 [19]: > 100 µM
- IC50 [20]: > 100 µM
- IC50 [21]: > 100 µM
- IC50 [22]: > 100 µM
- IC50 [23]: > 100 µM
- IC50 [24]: > 100 µM
- IC50 [25]: > 100 µM
